{
  "source": "paper PMC12514971",
  "about": "(Protein science : a publication of the Protein Society, 2025)",
  "target": "T1, ADAR1p150 (Zα domain) (Homo sapiens, UniProt P55265)",
  "T1 sequence (P55265 133-199 limits assumed)": "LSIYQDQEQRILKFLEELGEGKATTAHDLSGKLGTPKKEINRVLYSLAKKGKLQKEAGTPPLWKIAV",
  "experiment": "MST titration",
  "assay_type": "binding",
  "data": [
    {"smiles": "O=C(O)c1cc(=O)c2c(OCC(O)COc3cccc4oc(C(=O)O)cc(=O)c34)cccc2o1", "note": "[cromolyn]", "values": [
      {"measurement": "Kd", "result": "> 774", "unit": "µM"}
    ]}
  ]
}
